Measurements reported in paper PMC8294059, “Identification and Immune Assessment of T Cell Epitopes in Five Plasmodium falciparum Blood Stage Antigens to Facilitate Vaccine Candidate Selection and Optimization” (Frontiers in Immunology, 2021).
Where a SMILES comes first, the peptide text is derived from it.

Columns and labels:
Test in all cases: biochemical
Type in all cases: binding
HLA-DRB1*0101 = target: T1, HLA-DRB1*0101 (Homo sapiens, UniProt P01903+P01911, A100R/D57E/F55L/F60I/F76Y/I96L/L162R/M171V/P40L/Q125E/R42F/V115G/Y59C); details: binding inhibition assay; NB = non-binder (no dose-dependent inhibition); read-out: DRB1*0101 IC50
T1 construct: purchased
In short: (§1)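 HLA-peptide complexes are captured with anti-HLA-DR antibody, and bound reference is quantified by europium-probe time-resolved fluorescence.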

HLA-DRB1*0401 = target: T2, HLA-DRB1*0401 (Homo sapiens, UniProt P01903+P01911, A100K/A169T/F76Y/I96L/K127E/L162R/M171V/N62H/P40V/Q125Y/R42H/S133A/S149N/S66Y/V115G/V209L/W38E); details: binding inhibition assay; NB = non-binder (no dose-dependent inhibition); read-out: DRB1*0401 IC50
T2 construct: purchased
In short: as §1

HLA-DRB1*0701 = HLA-DRB1*0701 (Homo sapiens, UniProt P01903+P01911, A100R/A102G/A103Q/D57E/D86V/E43K/F76Y/K127E/L162R/M171V/P40G/Q125H/Q99D/R33Q/R42Y/R54Q/S133A/S66F/T210M/V115G/Y107V/Y59L/Y89S); details: binding inhibition assay; NB = non-binder (no dose-dependent inhibition); read-out: DRB1*0701 IC50
In short: as §1

HLA-DRB1*0801 = HLA-DRB1*0801 (Homo sapiens, UniProt P01903+P01911, A100R/A103L/A169T/D86S/F76Y/H45Y/I96F/K41T/L162R/M171V/P40S/Q125H/Q178H/Q39Y/Q99D/R218S/R42G/S66Y/V115G/W38E); details: binding inhibition assay; NB = non-binder (no dose-dependent inhibition); read-out: DRB1*0801 IC50
In short: as §1

HLA-DRB1*1101 = HLA-DRB1*1101 (Homo sapiens, UniProt P01903+P01911, A100R/A169T/A87E/I96F/K41T/L162R/M171V/P40S/Q125H/Q178H/Q39Y/Q99D/R42S/S66Y/T262R/V115G/W38E); details: binding inhibition assay; NB = non-binder (no dose-dependent inhibition); read-out: DRB1*1101 IC50
In short: as §1

HLA-DRB1*1301 = HLA-DRB1*1301 (Homo sapiens, UniProt P01903+P01911, A100E/A169T/K41T/L162R/M171V/P40S/Q125H/Q178H/Q39Y/Q99D/R42S/S66N/T262R/W38E/Y61H); details: binding inhibition assay; NB = non-binder (no dose-dependent inhibition); read-out: DRB1*1301 IC50
In short: as §1

HLA-DRB1*1501 = target: T3, HLA-DRB1*1501 (Homo sapiens, UniProt P01903+P01911); details: binding inhibition assay; NB = non-binder (no dose-dependent inhibition); read-out: DRB1*1501 IC50
T3 construct: purchased
In short: as §1

HLA-DRB1*1101, sequence (P01903 26-254 limits assumed, other chains not shown): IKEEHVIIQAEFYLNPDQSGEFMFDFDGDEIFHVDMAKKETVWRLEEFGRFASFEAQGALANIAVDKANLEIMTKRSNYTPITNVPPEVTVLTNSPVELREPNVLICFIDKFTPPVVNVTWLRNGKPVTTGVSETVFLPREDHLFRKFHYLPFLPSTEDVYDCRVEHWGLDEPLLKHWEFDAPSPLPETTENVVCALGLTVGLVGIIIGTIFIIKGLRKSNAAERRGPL

SMILES: CC[C@H](C)[C@H](NC(=O)[C@H](CO)NC(=O)[C@@H](NC(=O)[C@@H]1CCCN1C(=O)[C@@H](NC(=O)[C@H](CC(=O)O)NC(C)=O)C(C)C)[C@@H](C)CC)C(=O)N[C@H](C(=O)N[C@@H](CCCNC(=N)N)C(=O)N[C@@H](CC(N)=O)C(=O)N[C@@H](CC(N)=O)C(=O)N[C@@H](CCC(=O)O)C(=O)N[C@@H](CCC(N)=O)C(=O)N[C@H](C(=O)N[C@@H](CO)C(=O)N[C@@H](CCC(N)=O)C(=O)N[C@@H](CCC(=O)O)C(=O)N[C@@H](C)C(N)=O)[C@@H](C)O)[C@@H](C)CC [EBA175_014] (Ac-DVPISIIRNNEQTSQEA-NH2)
- IC50 (HLA-DRB1*0101): 6.15 µM
- IC50 (HLA-DRB1*0401): 3.81 µM
- IC50 (HLA-DRB1*0701): 13.3 µM
- IC50 (HLA-DRB1*0801): 18.7 µM
- IC50 (HLA-DRB1*1101): 16.7 µM
- IC50 (HLA-DRB1*1301): 14.1 µM
- IC50 (HLA-DRB1*1501): 3.09 µM

SMILES: CC[C@H](C)[C@H](NC(=O)[C@H](CC(N)=O)NC(=O)[C@H](Cc1ccc(O)cc1)NC(=O)[C@H](CC(N)=O)NC(=O)[C@H](CO)NC(=O)[C@H](CC(C)C)NC(=O)[C@H](CCC(=O)O)NC(=O)[C@H](CCCCN)NC(=O)[C@H](Cc1ccccc1)NC(=O)[C@H](Cc1c[nH]cn1)NC(=O)[C@H](Cc1ccc(O)cc1)NC(=O)[C@H](CCC(N)=O)NC(=O)[C@@H](N)CC(C)C)C(=O)N[C@@H](C)C(=O)N[C@@H](CC(N)=O)C(=O)N[C@@H](CO)C(=O)N[C@H](C(=O)N[C@@H](CC(=O)O)C(N)=O)[C@@H](C)CC [RH5_005] (H-LQYHFKELSNYNIANSID-NH2)
- IC50 (HLA-DRB1*0101): 0.018 µM
- IC50 (HLA-DRB1*0401): 2.86 µM
- IC50 (HLA-DRB1*0701): 3.79 µM
- IC50 (HLA-DRB1*0801): 19.4 µM
- IC50 (HLA-DRB1*1101): 11.3 µM
- IC50 (HLA-DRB1*1301): 50.9 µM
- IC50 (HLA-DRB1*1501): 0.025 µM

SMILES: CC[C@H](C)[C@H](NC(=O)[C@H](CS)NC(=O)[C@H](CCCCN)NC(=O)CNC(=O)[C@H](Cc1ccc(O)cc1)NC(=O)[C@@H](NC(=O)[C@H](CO)NC(=O)[C@H](CO)NC(=O)[C@H](CCCCN)NC(=O)[C@H](Cc1c[nH]cn1)NC(=O)[C@H](Cc1ccc(O)cc1)NC(=O)[C@@H](NC(=O)[C@H](CO)NC(=O)[C@H](CC(N)=O)NC(=O)[C@H](Cc1ccc(O)cc1)NC(=O)[C@H](CO)NC(=O)[C@H](CC(C)C)NC(=O)[C@H](Cc1c[nH]cn1)NC(C)=O)[C@@H](C)CC)[C@@H](C)O)C(=O)N[C@@H](C)C(N)=O [RH5_006B] (Ac-HLSYNSIYHKSSTYGKCIA-NH2)
- IC50 (HLA-DRB1*0101): 1.35 µM
- IC50 (HLA-DRB1*0401): 2.91 µM
- IC50 (HLA-DRB1*0701): 19.8 µM
- IC50 (HLA-DRB1*0801): 18.9 µM
- IC50 (HLA-DRB1*1101): 0.834 µM
- IC50 (HLA-DRB1*1301): 29.3 µM
- IC50 (HLA-DRB1*1501): 7.8 µM

SMILES: CC[C@H](C)[C@H](NC(=O)[C@H](Cc1ccc(O)cc1)NC(=O)[C@@H](NC(=O)[C@H](Cc1ccc(O)cc1)NC(=O)[C@H](CO)NC(=O)CNC(=O)[C@H](CCSC)NC(=O)[C@H](CCCCN)NC(=O)[C@H](CCCCN)NC(=O)[C@H](CC(N)=O)NC(=O)[C@H](CC(C)C)NC(=O)[C@H](CC(N)=O)NC(=O)[C@@H](NC(=O)[C@H](CC(C)C)NC(=O)[C@H](CC(C)C)NC(=O)[C@H](CC(C)C)NC(=O)[C@H](CCC(=O)O)NC(=O)[C@@H](N)CO)[C@@H](C)O)[C@@H](C)CC)C(N)=O [RH5_010B] (H-SELLLTNLNKKMGSYIYI-NH2)
- IC50 (HLA-DRB1*0101): 0.077 µM
- IC50 (HLA-DRB1*0401): 84 µM
- IC50 (HLA-DRB1*0701): 41.5 µM
- IC50 (HLA-DRB1*0801): 6.46 µM
- IC50 (HLA-DRB1*1101): 0.204 µM
- IC50 (HLA-DRB1*1301): 9.34 µM
- IC50 (HLA-DRB1*1501): 9.97 µM

SMILES: CC[C@H](C)[C@H](NC(=O)[C@H](CC(N)=O)NC(=O)[C@H](CC(N)=O)NC(=O)[C@H](CC(C)C)NC(=O)[C@H](Cc1c[nH]cn1)NC(=O)[C@H](CCCCN)NC(C)=O)C(=O)N[C@@H](Cc1ccccc1)C(=O)N[C@@H](Cc1c[nH]cn1)C(=O)N[C@@H](Cc1c[nH]cn1)C(=O)N[C@@H](CC(C)C)C(=O)N[C@H](C(=O)N[C@@H](Cc1ccc(O)cc1)C(=O)N[C@H](C(=O)N[C@@H](CC(C)C)C(=O)N[C@@H](CCC(N)=O)C(=O)N[C@@H](CCSC)C(=O)N[C@@H](CCCCN)C(N)=O)C(C)C)[C@@H](C)CC [RH5_012] (Ac-KHLNNIFHHLIYVLQMK-NH2)
- IC50 (HLA-DRB1*0101): 0.025 µM
- IC50 (HLA-DRB1*0401): 7.23 µM
- IC50 (HLA-DRB1*0701): 24.2 µM
- IC50 (HLA-DRB1*0801): 91.7 µM
- IC50 (HLA-DRB1*1101): 33.9 µM
- IC50 (HLA-DRB1*1301): 8.83 µM
- IC50 (HLA-DRB1*1501): 7.71 µM
